One assay relates to influenza virus. As to conditions: cited from earlier work.
Assay [1] has as its system A/Washington/29/2009(H1N1pdm) H275Y. The note with it: Oselt resistance strain; cited from earlier work.
In assay [2] the test system is A/Georgia/20/2006 (H1N1) H274Y. As to conditions: Oselt resistance strain; cited from earlier work.
Assay [3] deals with A/Massachusetts/5/2007 (H1N1) H274Y. As to conditions: Oselt resistance strain; cited from earlier work.
Assay [4] has as its system A/Texas/12/2007 (H3N2) E119V. The note with it: Oselt resistance strain; cited from earlier work.
Assay [5] deals with B/Hong Kong/36/2005 B) R371K. The note with it: Oselt + Zana resistance strain; cited from earlier work.
The test system of assay [6] is A/Mississippi/03/2001 A(H1N1) H275Y neuraminidase. The note with it: stated character of the test strain; cited from earlier work.
For assay [7] the test system is unchanged. The class given is biochemical, Influenza A.
Assay [8] concerns A/Montana/8/2007 (H3N2) D151V/D. As to conditions: Zana resistance strain; cited from earlier work.

“Also recorded” adds a separate entry of the source.

For orientation: IC50 means the point on the concentration scale where inhibition reaches its midpoint. In the case of `CCOC(=O)C1=C[C@@H](OC(CC)CC)[C@H](NC(C)=O)[C@@H](N)C1` [Oseltamivir], the “decrease in susceptibility of isolated virus variants” value in the assay on influenza virus is given as more than 10 fold. For the same molecule, the concentration for half-maximal inhibition (IC50) in assay [1] was 1460 nM; in [2], 383 nM; in [3], 258 nM; in [4], 9.18 nM; in assay [5], 1780 nM. Besides, the “known sensitivity of the test strain neuraminidase to the drug” value in assay [6] is reported as “resistant”.
On to `CC(=O)N[C@H]1[C@H]([C@H](O)[C@H](O)CO)OC(C(=O)O)=C[C@@H]1N=C(N)N` [Zanamivir], for which the “relative sensitivity of test strain in dual enzyme assay” value in assay [7] is “more sensitive to Zanamivir than Oseltamivir; also recorded: Relenza outperforms Tamiflu”. Also, the IC50 in assay [8] is 192 nM; in assay [5], 154 nM. The “known sensitivity of the test strain neuraminidase to the drug” value in assay [6] is listed as “sensitive”.

The values are drawn from patent US12372525B2 (priority 2013, dated 2025).
